According to patent publication US12534439B2, “Xanthohumol derivatives and methods for making and using” (Oregon State University, priority 2021, dated 2026):

Tested on: LPS-activated RAW 264.7 cells
Assay: Nitric oxide (NO) assay, Griess reagent
Type: cell-based
Details: LPS 1 μg/mL, 24 hours
Protocol: Nitric Oxide (NO) Assay. NO secreted by LPS-activated RAW 264.7 cells into the culture medium was determined as nitrite by the Griess reagent. RAW 264.7 1 cells obtained from the American Type Culture Collection (Manassas, VA, USA) were cultured in DMEM supplemented with 2 mM glutamine, antibiotics (100 U/mL penicillin and 100 μg/mL streptomycin), and 10% heat-inactivated fetal bovine serum. The cells were initially grown in 75 cm^2 culture flasks at 37° C. in a humidified incubator with 5% CO2. After reaching 80% confluency, the cells were split by seeding them on 96-well plates (0.2 mL/well) at a density of 1.5×10^5 cells/mL. After a 24-hour incubation at 37° C., the cells were treated with LPS (1 μg/mL) with or without test compounds in various concentrations. Vehicle control cells were treated with dimethyl sulfoxide alone at a final concentration of 0.1%. Culture media from control and treated cells were collected after 24 hours of incubation and were frozen at −80° C. before analysis. For the determination of NO (as […]), […], aliquots of the thawed culture media were mixed with an equal volume of Griess reagent on a 96-well plate. […] The samples were incubated for 10 minutes at room temperature and then the absorbance was read at 550 nm using a SpectraMax 190 (Molecular Devices, Sunnyvale, CA) plate reader.

Compound: COc1cc(O)c(CC=C(C)C)c(O)c1-c1cc(-c2ccc(O)cc2)on1 [isoxazole derivative, 4-(5-(4-hydroxyphenyl)isoxazol-3-yl)-5-methoxy-2-(3-methylbut-2-en-1-yl)benzene-1,3-diol]
- Concentration from which anti-inflammatory activity (decreased NO production) was displayed: ~10 µM
